Measurements reported in publication PMC7883873, “Discovery of New Catalytic Topoisomerase II Inhibitors for Anticancer Therapeutics” (Frontiers in Oncology, 2021).
pIC50: −log10 of the molar value.

Key:
[1] = test system: K562 xenografts; experiment: K562 xenografts, intra-tumor polymeric paste; assay type: in vivo, nude mice (Nu/Nu); conditions: single 30 µl paste, 1% T60 or T633, 0.3% etoposide
Procedure: The polymeric paste was prepared with 50% poly-DL-lactide-coglycolide (PLGA) and 50% PEG 300 (w/w) as we have reported ([57]). […] The density of the paste was determined to be 1.2 g/ml ( ± 3%). One million K562 cells were inoculated subcutaneously in bilateral flanks of nude mice (Nu/Nu). […] Tumor volumes were measured every three days and were calculated by length × width × depth × 0.5236. Mice were euthanized when tumor volumes reached 15% of body weight or weight loss >20% occurred. The remaining mice were euthanized after the control group was euthanized. All animal procedures were under the guidelines of the Canadian Council on Animal Care and were approved by the UBC Animal Care Committee (# A19-0256).

[2] = molecular target: T1, TOP2A (Homo sapiens, UniProt P11388); experiment: DNA relaxation assay (supercoiled pHOT-1 plasmid); assay type: biochemical; design: full-length human TOP2A and TOP2B protein (TopoGEN and Inspiralis respectively); purchased TopoGEN TG1001 (human TOP2 assay kit)
T1 sequence (P11388 whole entry): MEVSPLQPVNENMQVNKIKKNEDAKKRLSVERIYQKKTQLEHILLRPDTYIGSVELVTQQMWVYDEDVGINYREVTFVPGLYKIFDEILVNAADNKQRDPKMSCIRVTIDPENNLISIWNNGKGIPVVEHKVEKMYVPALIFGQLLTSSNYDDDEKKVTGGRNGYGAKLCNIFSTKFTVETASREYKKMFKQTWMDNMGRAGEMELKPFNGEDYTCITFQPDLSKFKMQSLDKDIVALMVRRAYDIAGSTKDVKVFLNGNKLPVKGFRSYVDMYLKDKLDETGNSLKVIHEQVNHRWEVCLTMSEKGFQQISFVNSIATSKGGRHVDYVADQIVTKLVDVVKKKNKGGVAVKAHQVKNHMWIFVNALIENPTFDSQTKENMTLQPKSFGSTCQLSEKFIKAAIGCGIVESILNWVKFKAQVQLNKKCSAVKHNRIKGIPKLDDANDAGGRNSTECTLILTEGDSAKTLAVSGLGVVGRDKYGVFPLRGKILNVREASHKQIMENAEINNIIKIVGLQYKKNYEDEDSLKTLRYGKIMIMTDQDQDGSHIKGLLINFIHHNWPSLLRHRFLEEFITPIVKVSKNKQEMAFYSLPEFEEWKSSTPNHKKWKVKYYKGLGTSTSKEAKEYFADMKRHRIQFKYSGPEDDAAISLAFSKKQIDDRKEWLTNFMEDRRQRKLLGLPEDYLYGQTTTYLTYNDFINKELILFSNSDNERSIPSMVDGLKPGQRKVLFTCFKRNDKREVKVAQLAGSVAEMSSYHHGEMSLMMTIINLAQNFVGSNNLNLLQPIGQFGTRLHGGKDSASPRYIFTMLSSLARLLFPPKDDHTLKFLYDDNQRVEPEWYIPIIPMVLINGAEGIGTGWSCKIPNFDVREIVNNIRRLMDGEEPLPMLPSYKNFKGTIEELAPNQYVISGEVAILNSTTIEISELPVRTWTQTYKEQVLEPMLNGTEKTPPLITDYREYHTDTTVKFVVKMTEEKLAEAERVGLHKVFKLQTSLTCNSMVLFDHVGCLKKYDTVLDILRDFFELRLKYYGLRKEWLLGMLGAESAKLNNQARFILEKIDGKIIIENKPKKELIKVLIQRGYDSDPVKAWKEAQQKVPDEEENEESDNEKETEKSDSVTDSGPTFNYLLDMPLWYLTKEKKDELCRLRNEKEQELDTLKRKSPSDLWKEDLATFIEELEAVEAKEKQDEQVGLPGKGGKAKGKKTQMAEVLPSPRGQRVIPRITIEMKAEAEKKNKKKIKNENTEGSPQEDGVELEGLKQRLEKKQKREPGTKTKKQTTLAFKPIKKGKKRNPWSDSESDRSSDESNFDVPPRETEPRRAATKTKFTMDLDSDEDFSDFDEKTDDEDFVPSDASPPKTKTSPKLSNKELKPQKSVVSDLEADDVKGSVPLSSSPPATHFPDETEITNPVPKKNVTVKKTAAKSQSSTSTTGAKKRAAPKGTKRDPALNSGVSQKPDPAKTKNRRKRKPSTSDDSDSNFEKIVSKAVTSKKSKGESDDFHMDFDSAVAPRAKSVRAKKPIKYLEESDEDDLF
Procedure: (§1) The human TOP2A and TOP2B were used to perform DNA relaxation assays. […] The reaction was incubated at 37C for 2 h and stopped by adding 2 µl of 10% SDS and 1 µl of 250 mM of EDTA, followed by the addition of 50 µg/ml of proteinase K at 45 C for 1 h. The reaction was then resolved by electrophoresis on a 1% agarose gel at 80 V and stained with 0.5 µg/ml ethidium bromide for 15 min. DNA bands were visualized using a gel imager (Gel Doc™ EZ System) and quantified using the Image Studio™ Lite Quantification Software.

[3] = molecular target: T2, TOP2B (Homo sapiens, UniProt Q02880); experiment: DNA cleavage assay; assay type: biochemical; design: full-length human TOP2A and TOP2B protein (TopoGEN and Inspiralis respectively); purchased Inspiralis HTB205; conditions: co-treatment with 200 µM etoposide; 1, 100, 200 µM
T2 sequence (Q02880 whole entry): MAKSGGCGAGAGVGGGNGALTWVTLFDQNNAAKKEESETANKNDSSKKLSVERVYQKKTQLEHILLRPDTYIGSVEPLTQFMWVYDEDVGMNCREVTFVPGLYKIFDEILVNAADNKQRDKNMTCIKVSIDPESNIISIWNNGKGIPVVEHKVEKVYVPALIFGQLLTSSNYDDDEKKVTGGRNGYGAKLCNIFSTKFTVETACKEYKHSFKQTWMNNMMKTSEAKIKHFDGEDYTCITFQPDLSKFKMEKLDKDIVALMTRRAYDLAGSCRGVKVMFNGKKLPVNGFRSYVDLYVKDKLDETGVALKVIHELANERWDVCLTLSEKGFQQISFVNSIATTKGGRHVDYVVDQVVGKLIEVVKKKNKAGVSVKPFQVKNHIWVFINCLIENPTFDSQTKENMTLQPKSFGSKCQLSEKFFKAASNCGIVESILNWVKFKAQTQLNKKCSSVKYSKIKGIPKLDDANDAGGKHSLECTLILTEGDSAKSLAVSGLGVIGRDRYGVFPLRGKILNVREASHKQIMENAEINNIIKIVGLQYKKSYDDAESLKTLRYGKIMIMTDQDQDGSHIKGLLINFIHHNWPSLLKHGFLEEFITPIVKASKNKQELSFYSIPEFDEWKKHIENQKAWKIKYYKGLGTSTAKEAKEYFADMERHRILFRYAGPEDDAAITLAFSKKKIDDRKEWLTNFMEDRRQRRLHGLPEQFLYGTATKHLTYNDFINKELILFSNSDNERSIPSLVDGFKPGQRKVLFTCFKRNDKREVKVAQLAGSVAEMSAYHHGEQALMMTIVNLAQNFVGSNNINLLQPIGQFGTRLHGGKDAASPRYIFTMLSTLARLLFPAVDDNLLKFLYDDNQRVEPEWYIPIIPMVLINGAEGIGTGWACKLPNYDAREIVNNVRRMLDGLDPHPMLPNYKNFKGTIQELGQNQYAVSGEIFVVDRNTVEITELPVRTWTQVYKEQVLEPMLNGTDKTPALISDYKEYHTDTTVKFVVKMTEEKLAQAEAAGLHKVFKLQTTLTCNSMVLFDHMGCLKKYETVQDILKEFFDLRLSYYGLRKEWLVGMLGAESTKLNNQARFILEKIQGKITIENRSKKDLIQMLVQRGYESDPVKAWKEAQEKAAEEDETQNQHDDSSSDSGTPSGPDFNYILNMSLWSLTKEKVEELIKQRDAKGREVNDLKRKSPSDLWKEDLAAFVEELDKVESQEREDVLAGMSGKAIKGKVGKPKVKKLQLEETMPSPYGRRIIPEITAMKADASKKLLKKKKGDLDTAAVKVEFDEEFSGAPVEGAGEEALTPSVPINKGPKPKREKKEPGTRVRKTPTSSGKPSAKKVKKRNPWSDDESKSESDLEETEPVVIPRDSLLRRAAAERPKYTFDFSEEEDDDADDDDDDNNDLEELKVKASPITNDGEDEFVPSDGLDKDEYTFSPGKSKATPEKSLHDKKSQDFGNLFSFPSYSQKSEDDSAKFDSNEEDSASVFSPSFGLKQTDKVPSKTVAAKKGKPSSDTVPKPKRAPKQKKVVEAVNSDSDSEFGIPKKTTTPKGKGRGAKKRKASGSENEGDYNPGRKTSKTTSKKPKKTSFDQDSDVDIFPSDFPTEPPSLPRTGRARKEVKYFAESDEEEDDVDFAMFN
Procedure: The reactions were incubated in 37C for 30 min and stopped by adding 2 µl of 10% SDS and 1 µl of 250 mM of EDTA, followed by the addition of 50 µg/ml of proteinase K at 45C for 30 min. The reaction was then resolved by electrophoresis on a 1% agarose gel containing […] ethidium bromide in TAE buffer at 60 V. DNA bands were visualized using a gel imager (Gel Doc™ EZ System) and quantified by using the Image Studio™ Lite Quantification Software.

[4] = molecular target: T1, TOP2A; experiment: Relaxation and K-DNA decatenation assays of candidates and T60 derivatives (SAR); assay type: biochemical; design: full-length human TOP2A and TOP2B protein (TopoGEN and Inspiralis respectively); purchased TopoGEN TG1001 (human TOP2 assay kit); conditions: compared with T60
Procedure: (§2) The human TOP2 assay kit (#TG1001, TopoGEN, Buena Vista, CO) and TOP2B (HTB205, Inspiralis, UK) were used for K-DNA decatenation assays. […] The reaction was incubated at 37C for 2 h after which 4 µl stop solution (5× buffer is 5% Sarkosyl, 0.125% bromophenol blue, 25% glycerol) was added. The reaction was resolved by electrophoresis on a 0.8% agarose gel at 60 V and stained with 0.5 µg/ml ethidium bromide for 15 min. DNA bands were visualized using a gel imager (Gel Doc™ EZ System) and quantified using the Image Studio™ Lite Quantification Software.
as §1

[5] = test system: AR-v7; experiment: Probasin- and PSA-luciferase reporter in 293T cells; assay type: cell-based; conditions: 0-20 µM
[6] = test system: DU145; experiment: Cell viability, MTS assay; assay type: cell-based; conditions: 0-20 µM; compared to AR-positive PCa cell lines
Procedure: (§3) Cell proliferation rates were measured by using the CellTitre 96 AqueousOne kit (Promega) and bromodeoxyuridine (BrdU) assay kit (Millipore) according to the manufacturer’s protocol as we have described ([51]). Cytotoxicity was evaluated by using the commercial kit (CAT# 8078, ThermoFisher). Culture media was collected and used to measure lactate dehydrogenase (LDH) levels by a colorimetric method following the manufacture’s protocol (ThermoFisher). Cell cycling was assessed by using BrdU incorporation into S-phase DNA by using the APC BrdU flow kit (BD Pharmingen; Franklin Lakes, New Jersey) according to the manufacturer’s protocol. 1 mM of BrdU was added to cells and incubated for 6 h. Cells were incubated with anti-BrdU antibody and stained with 7-AAD before processing the cells for flow cytometry ([52]). Immunoblotting assays followed the standard protocol as we have reported ([51]–[53]).

[7] = test system: BPH1; experiment: Cell viability, MTS assay; assay type: cell-based; conditions: 0-20 µM; compared to AR-positive PCa cell lines
Procedure: as §3

[8] = test system: NCCIT testicular cells; experiment: Cell viability, MTS assay; assay type: cell-based; conditions: T60 alone, up to 20 µM
Procedure: as §3

[9] = test system: AR proteins in LNCaP cells; experiment: AR nuclear localization, cytoplasmic/nuclear western blotting; assay type: cell-based; conditions: 20 µM, 24 h
[10] = molecular target: T1, TOP2A; experiment: K-DNA decatenation assay; assay type: biochemical; design: full-length human TOP2A and TOP2B protein (TopoGEN and Inspiralis respectively); purchased TopoGEN TG1001 (human TOP2 assay kit)
Procedure: as §2

[11] = molecular target: T2, TOP2B; experiment: DNA relaxation assay (supercoiled pHOT-1 plasmid); assay type: biochemical; design: full-length human TOP2A and TOP2B protein (TopoGEN and Inspiralis respectively); purchased Inspiralis HTB205; conditions: densitometry of SC bands; read-out: IC50, inhibition of TOP2B plasmid DNA relaxation
Procedure: as §1

[12] = test system: salmon sperm DNA; experiment: Ethidium bromide displacement assay; assay type: binding; conditions: increasing doses; 100 µg/ml DNA, 2 µg/ml ethidium bromide
Procedure: Ethidium bromide displacement assay was performed as previously described ([49], [50]) using Amsacrine (mAMSA) as a positive control. In a 20 µl reaction, compounds were mixed with 100 µg/ml of salmon sperm DNA and 2 µg/ml of ethidium bromide in a fluorescence buffer containing 10 mM HEPES, pH 7.9, 100 mM KCl, 5 mM MgCl2, 0.1 mM EDTA, pH 8.0. Triplicate reactions were subjected to fluorescence emission of 590 nm and excitation of 535 nm. Signals were detected by using the Multimode Microplate Reader, Infinite® F500.

## O=C(Nc1ccc(Nc2ccccc2)cc1)c1ccc[nH]c1=S [T60]
[1]
  Tumor growth at the end of two weeks: strongly inhibit tumor growth comparable to etoposide
[2]; Figure 3B
  Inhibition of TOP2A activity changing supercoiled into relaxed plasmid DNA: inhibited
[2]; densitometry of SC bands, read-out: IC50, inhibition of TOP2A plasmid DNA relaxation
  pIC50: ~5.33
[3]
  Prevention of etoposide-induced DNA cleavage, TOP2B: prevented
[4]
  Activity on TOP2: less active
[5]
  Luciferase activities driven by probasin and PSA promoters, AR-v7: inhibited luciferase activities
[6]
  Cell viability, DU145: to a much less extent
[7]
  Cell viability, BPH1: to a much less extent
[8]
  Inhibition of cell growth, NCCIT: 50%
[9]
  Nuclear localization of AR proteins, LNCaP: reduced nuclear localization
[10]; Figure 3A
  Inhibition of TOP2A mediated K-DNA decatenation: inhibited
[10]; densitometry of D-DNA bands, read-out: IC50, inhibition of TOP2A K-DNA decatenation
  pIC50: ~6.52
[11]
  pIC50: ~5.05
[12]
  Fluorescence of ethidium bromide/DNA complex (DNA intercalation): does not intercalate with DNA
